Source: PubChem BioAssay AID489027 (Sanford-Burnham Center for Chemical Genomics, 2010)
Active and inactive are the calls of the source. How the calls were made is not given here.

Molecular target: UPR counterscreen luciferase reporter, luminescence
Test: luciferase reporter activation, UPR counterscreen line – cell-based, luminescence, counter-screen for adaptive UPR activator project, dose response (AID 489027)

Structure (SMILES)	EC50
O=C(C[C@@H]1C/C=C/CC[C@H](Cc2ccc(F)cc2)C(=O)OC[C@@H](Cc2ccccc2)NC1=O)N[C@H](CO)Cc1ccccc1	14.4 µM
CCOC(=O)C(=CNc1nc(-c2ccccc2)c(C(=O)Nc2ccc(-c3ccccc3)cc2)s1)C(=O)OCC	inactive
Cc1ccc2c(c1)C(c1ccc([N+](=O)[O-])cc1)=NNC(c1ccc(Br)cc1)=N2	> 80 µM (inactive)
CCc1ccc(-n2c(SCC(=O)c3ccc4c(c3)NC(=O)CO4)nc3ccccc3c2=O)cc1	9.34 µM
OCCNc1nc(Nc2ccc(Cl)c(Cl)c2)nc2ccccc12	10.8 µM
COc1cc(C(=O)Nc2cc(-c3nc4cc(C)ccc4o3)ccc2C)cc(OC)c1OC	inactive
O=C(NCCc1ccc(O)c(O)c1)C1COc2ccccc2O1 (stereo unspecified)	16.8 µM
Cc1ccc2c(c1)C(=O)C(=O)N2Cc1ccc(C(F)(F)F)cc1	inactive
OCCCn1c(C2CCCN2c2nc(-c3ccc(F)cc3)cs2)nc2cc(Cl)c(N3CCCCC3)cc21 (stereo unspecified)	> 80 µM (inactive)
O=C(Nc1ccc(O)c2c(=O)cc(-c3cccc(Cl)c3)oc12)c1cccc(Cl)c1	inactive
CCN(CC)c1ccc(C(=O)OCC(=O)Nc2cc3oc4ccccc4c3cc2OC)cc1	20 µM
COc1cc2[nH]c3c(N4CCN(c5ccc(Cl)cc5)CC4)ncnc3c2cc1OC	> 80 µM (inactive)
CCOc1cc(/C=N/N=C(/N)c2nonc2N)cc(Br)c1OCc1ccc(Cl)cc1	> 80 µM (inactive)
O=C(O)c1ccc(N2C(=O)/C(=C/c3ccc(-c4ccc([N+](=O)[O-])cc4)o3)C=C2c2ccccc2)cc1	> 80 µM (inactive)
Cc1ccc(NC(=O)c2nc[nH]c2C(=O)NCCCNC(=O)c2[nH]cnc2C(=O)Nc2ccc(C)cc2)cc1	> 80 µM (inactive)
Oc1cccc(-c2nc3c4c(ncn3n2)-c2ccccc2CC42CCCC2)c1	18.6 µM
CCN(CC)c1ccc(/C=C/[N+](=O)[O-])cc1	11.3 µM
Cc1cc(C)c2c(CCl)cc(=O)oc2c1	19.1 µM
CCOc1cccc(C(=O)Nc2cccc(-c3nnc(-c4ccc(C)cc4)o3)c2)c1	12.1 µM
COc1cc(SC#N)ccc1N=Cc1c(C)[nH]n(-c2ccc(Cl)cc2)c1=O	7.41 µM
CCOC(=O)c1ccc(-c2ccc(/C=N/NC(=O)CN(c3cccc(C)c3)S(C)(=O)=O)o2)cc1	15.5 µM
CCCCOc1ccccc1NC(=O)Cn1c(-c2nonc2N)nc2ccccc21	inactive
Cc1ccc2c(c1)C(=O)C(=O)N2Cc1ccc(Br)cc1	inactive
CCCCN1C(=O)/C(=C2/Sc3ccc(OC)cc3N2CC)SC1=S	inactive

Structure (SMILES)	EC50
CCOc1cc(/C=N\Nc2ccc([N+](=O)[O-])cc2)ccc1OCC(=O)Nc1ccc(C)c(C)c1	> 80 µM (inactive)
COc1ccc(Nc2nc(N)c([N+](=O)[O-])c(NC3CCCCC3)n2)cc1	> 80 µM (inactive)
NCCc1c(-c2ccccc2)n(-c2ccccc2)c2ccccc12	17.9 µM
CN(C)CCCN(C(=O)c1ccc(S(=O)(=O)N2CCc3ccccc3C2)cc1)c1nc2ccc(F)cc2s1	8.2 µM
C/C(=N/NC(=O)c1ccc(C)s1)c1cccc(NC(=O)COc2ccc(Cl)cc2C)c1	20 µM
CCOc1ccc(C(=O)Nc2ccc(NC(=O)c3ccco3)c(Cl)c2)cc1Cl	8.74 µM
O=C(/C=C/c1ccc(Cl)cc1)NC(=S)Nc1ccc(N2CCOCC2)c(Cl)c1	> 80 µM (inactive)
Nc1nc(Nc2ccccc2)nc(NC2CCCCC2)c1[N+](=O)[O-]	inactive
O=C(NC1CCCCC1)c1cccc2c1C(=O)c1ccc(-c3ccc(OC(F)(F)F)cc3)cc1S2(=O)=O	> 80 µM (inactive)
CN1Cc2c(N3CCOCC3)nc3sc(C(=O)c4ccc(Br)cc4)c(N)c3c2CC1(C)C	18.7 µM
O=C(C[C@H]1C[C@H](C(=O)N2CCCCC2)[C@@]2(CCc3ccccc3)c3[nH]c4ccc(Cl)cc4c3CCN2C1=O)NCCC1=CCCCC1	inactive
CC(C)C(=O)N(c1cc2sc(=O)oc2c2ccccc12)S(=O)(=O)c1cccs1	16.3 µM
CCC/C(=N/Nc1ccc(Cl)cc1)c1cnnc(-c2ccccc2)n1	inactive
CCC(=O)Nc1cccc(C(=O)/C=C/c2ccc(F)cc2)c1	12.1 µM
CCCCCc1nc2c(c(=O)c3ccccc3n2C)c(=O)n1C1CCCCCC1	15.3 µM
CC(C)c1ccc(/C=C/C(=O)Nc2nc3ccc([N+](=O)[O-])cc3s2)cc1	inactive
Cc1sc(NC(=O)c2cc(-c3ccc(Cl)cc3)nc3ccccc23)c(C(N)=O)c1C	> 80 µM (inactive)
O=C(Nc1ccc2oc(-c3ccccc3Cl)nc2c1)c1cncc(Br)c1	> 80 µM (inactive)
Cc1ccc(C2=Nc3ccc(Br)cc3C(c3ccncc3)=NN2)cc1	inactive
FC(F)(F)c1nnc2c(Sc3ccc(Cl)cc3)nc3ccccc3n12	4.67 µM
Cc1cc(C)c(NC(=O)CSc2nc(COc3ccccc3)nc3ccccc23)c(C)c1	inactive
CCN(CC)CCn1c(SCC(=O)Nc2ccc(F)cc2)nc2c(sc3ccccc32)c1=O	> 80 µM (inactive)
O=C(NN1C(=O)/C(=C/c2ccc(O)c(O)c2)SC1=S)c1ccccc1	10.2 µM
Cc1ccc(Nc2nc(-c3c(C)nc4ccccn34)cs2)cc1	> 80 µM (inactive)

Structure (SMILES)	EC50
CC1CCN(Cc2c(C(=O)N/N=C/c3ccc(C(C)(C)C)cc3)nnn2-c2nonc2N)CC1	6.58 µM
CCOc1cc(/C=N/NC(=O)Cn2nc([N+](=O)[O-])cc2C)cc(Br)c1OCc1ccccc1C	> 80 µM (inactive)
O=[N+]([O-])c1cccc(/C=C/c2ccc3cccc(O)c3n2)c1	> 80 µM (inactive)
COc1cc(/C=C2\CC(C(C)(C)C)C/C(=C\c3cc(OC)c(OC)c(OC)c3)C2=O)cc(OC)c1OC (stereo unspecified)	4 µM
COc1ccc(-c2csc3nc(-c4ccc(C)cc4)oc(=O)c23)cc1OC	> 80 µM (inactive)
CC1CCc2c(sc(NC(=O)CCc3nc4ccccc4c(=O)[nH]3)c2C#N)C1 (stereo unspecified)	inactive
O=C(NCC1CC1)c1cccc2c1C(=O)c1ccc(-c3ccc(OC(F)(F)F)cc3)cc1S2(=O)=O	> 80 µM (inactive)
COc1ccc(OC)c(Nc2nc(NCc3ccco3)nc(N)c2[N+](=O)[O-])c1	inactive
Oc1ccc(Br)cc1/C=N/Nc1ccccn1	> 80 µM (inactive)
CCC(=O)Nc1ccc(-c2cc(-c3ccccc3)nc(-c3ccc(NC(=O)CC)cc3)n2)cc1	> 80 µM (inactive)
Cc1nc(SCC(=O)Nc2ccc(F)cc2)c(C#N)c(C)c1CC(=O)c1ccc(Br)cc1	> 80 µM (inactive)
COc1ccc(OC)c(-c2nnc3n2N=C(c2ccc(OC)c(OCC4CC4)c2)CS3)c1	> 80 µM (inactive)
C/C(=N/Nc1cc(-c2ccccc2)nc(-c2ccccc2)n1)c1ccc(O)cc1	15.4 µM
CC(=O)c1cccc(Nc2nc(-c3cccc([N+](=O)[O-])c3)cs2)c1	> 80 µM (inactive)
CC(C)(C)C(=O)NC(=S)NNC(=O)c1sc2ccccc2c1Cl	> 80 µM (inactive)
Cc1ccc(C(=O)Cn2c(C(=O)/C=C/c3ccccc3)nc3ccccc32)cc1	10.9 µM
CN(C)c1ccc(/C=C/[N+](=O)[O-])cc1	12.6 µM
Cc1ccc(NC(=O)Cn2c(/C=C/c3ccccc3)nc3ccccc32)cc1C	> 80 µM (inactive)
Cc1cccnc1Nc1nc(-c2ccc(O)c(O)c2)cs1	2.29 µM
Cc1ccccc1NC(=O)c1ccc(N/N=C/c2ccccc2O)c([N+](=O)[O-])c1	7.98 µM
Cc1cc(C)nc(SCc2ccc(C(=O)N/N=C/c3cccc(O)c3O)cc2)n1	6.43 µM
O=C(/C=C/c1ccccc1)c1ccccc1O	13.2 µM
COc1cc(/C=C/c2ccc3cccc(O)c3n2)ccc1O	7.62 µM
COC(=O)c1c(C)oc2ccc(N(C(=O)Oc3ccccc3)S(=O)(=O)c3ccc(Cl)c([N+](=O)[O-])c3)cc12	12.5 µM

Structure (SMILES)	EC50
COc1ccc(-c2csc(NC(=S)NC(=O)/C=C/c3ccco3)n2)cc1Br	inactive
CC(C)(C)C(=O)NC(=S)NNC(=O)C(c1ccccc1)c1ccccc1	2.14 µM
Clc1ccc2c(c1)C(N1CCNCC1)Cc1ccccc1S2 (stereo unspecified)	> 80 µM (inactive)
Cc1ccc(NS(=O)(=O)c2cc([N+](=O)[O-])ccc2N/N=C/c2sc(N3CCOCC3)nc2-c2ccccc2)c(C)c1	> 80 µM (inactive)
COc1cc(NC(=O)c2cncc(-c3ccc(C#N)cc3)c2)cc(C(=O)Nc2cccc(C(F)(F)F)c2)c1	inactive
O=C(Cn1c2ccc(F)cc2c2nc3n(c(=O)c21)CCS3)Nc1ccc(Cl)cc1F	> 80 µM (inactive)
Cc1cc(NC(=O)c2cc(-c3ccccn3)nc3ccc(Br)cc23)no1	> 80 µM (inactive)
COc1ccc(CCn2c(C3CCCCC3)nc3c(c(=O)c4ccccc4n3C)c2=O)cc1	> 80 µM (inactive)
Cc1ccc(NC(=O)CSc2nc3ccccc3c3nc4ccccc4n23)cc1	6.26 µM
Cn1c(Cl)cnc1C1CC(=O)c2cc(Cl)ccc2O1 (stereo unspecified)	12 µM
CCOC(=O)Cc1csc(/N=C/c2c(O)n(-c3ccc(C)c(C)c3)c(=O)c3ccccc23)n1	7.15 µM
CCOC(=O)c1nnc(-c2ccccc2)nc1Sc1c(Cl)cccc1Cl	12.9 µM
CCc1ccc(-c2cc(C(F)(F)F)n3nc(C(=O)Nc4cnn(Cc5ccc(C)cc5)c4)cc3n2)s1	3.35 µM
COc1ccc(/C=C/c2nc3cc(-c4ccccc4)ccc3o2)cc1O	14.6 µM
Nc1nc(Nc2cccc(F)c2)nc2ccccc12	inactive
O=C(Cc1ccccc1)c1c[nH]c(C(=O)C(Cl)(Cl)Cl)c1	inactive
COc1cc(C(=O)Nc2nc(-c3ccc(Cl)cc3)c(C)s2)ccc1OCC(=O)Nc1ccc(F)cc1	17.9 µM
O=C(Nc1ccc(SC(F)F)cc1)c1cc(-c2ccncc2)nc2ccccc12	> 80 µM (inactive)
CCOC(=O)C1=C(C)N=C2SC(C(=O)OC)=CC(=O)N2C1c1ccc(F)cc1 (stereo unspecified)	> 80 µM (inactive)
N#C/C(=C\c1ccc(N2CCCC2)c([N+](=O)[O-])c1)c1nc2ccccc2[nH]1	> 80 µM (inactive)
Cc1ccc2c(n1)sc1c(-c3ccc(Br)cc3)c(C#N)c(N)nc12	> 80 µM (inactive)
COc1cc(NC(=O)c2ccc(C)cc2C)ccc1NC(=O)c1cc2ccccc2o1	inactive
CC(C)CC(NC(=O)c1ccc(Cl)cc1)C(=O)OCC(=O)c1ccc2c(c1)NC(=O)CO2 (stereo unspecified)	> 80 µM (inactive)
CC(C)(C)c1ccc(C(=O)Nc2ccc(O)c3c(=O)cc(-c4cccc(Cl)c4)oc23)cc1	> 80 µM (inactive)
